Data taken from patent US10525041B2, “Fluoroalkyl-substituted aryltriazole derivatives and uses thereof” (BAYER PHARMA AKTIENGESELLSCHAFT, priority 2016, dated 2020).
pIC50: −log10 of the molar value.

What was measured:
human V2 receptor = target: T1, human V2 receptor (Homo sapiens, UniProt P30518); test: Cellular in vitro assay for vasopressin receptor activity, V2 cell line (CRE-luciferase); assay type: cell-based; conditions: CHO cell line transfected with human V2 receptor; agonist [Arg8]-vasopressin at EC50 concentration, 3 hours; read-out: IC50hV2
T1 construct: expressed in transfected cells; host or cells: CHO K1 (ATCC) line expressing firefly luciferase under a CRE-responsive promoter
T1 sequence (P30518 whole entry): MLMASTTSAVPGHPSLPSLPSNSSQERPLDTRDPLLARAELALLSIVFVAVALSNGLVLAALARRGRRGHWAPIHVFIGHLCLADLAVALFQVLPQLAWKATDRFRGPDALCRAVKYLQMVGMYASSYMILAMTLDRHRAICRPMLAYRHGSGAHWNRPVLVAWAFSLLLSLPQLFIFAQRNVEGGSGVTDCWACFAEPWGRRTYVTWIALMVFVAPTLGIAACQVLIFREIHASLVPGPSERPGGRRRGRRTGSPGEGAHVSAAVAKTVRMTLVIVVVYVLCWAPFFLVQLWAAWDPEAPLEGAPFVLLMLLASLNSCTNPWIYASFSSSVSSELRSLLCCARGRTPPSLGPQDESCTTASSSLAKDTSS
Protocol: (§1) B-1. Cellular In Vitro Assay for Determining Vasopressin Receptor Activity
(§2) The identification of agonists and antagonists of the V1a and V2 vasopressin receptors from humans, rats and dogs as well as the quantification of the activity of the compounds of the invention is carried out using recombinant cell lines. These cell lines originally derive from a hamster's ovary epithelial cell (Chinese Hamster Ovary, CHO K1, ATCC: American Type Culture Collection, Manassas, Va. 20108, USA). The test cell lines constitutively express the human, rat or dog V1a or V2 receptors. In case of the Gαq-coupled V1a receptors, cells are also stably transfected with a modified form of the calcium-sensitive photoproteins aequorin (human and rat V1a) or obelin (dog V1a), which, after reconstitution with the cofactor coelenterazine, emit light when there are increases in free calcium concentrations [Rizzuto R, Simpson A W, Brini M, Pozzan T, Nature 358, 325-327 (1992); Illarionov B A, Bondar V S, Illarionova V A, Vysotski E S, Gene 153 (2), 273-274 (1995)]. The resulting vasopressin receptor cells react to stimulation of the recombinantly expressed V1a receptors by intracellular release of calcium ions, which can be quantified by the resulting photoprotein luminescence. The Gs-coupled V2 receptors are stably transfected into cell lines expressing the gene for firefly luciferase under control of a CRE-responsible promoter. Activation of V2 receptors induces the activation of the CRE-responsive promoter via cAMP increase, thereby inducing the expression of firefly luciferase. The light emitted by photoproteins of V1a cell lines as well as the light emitted by firefly luciferase of V2 cell lines corresponds to the activation or inhibition of the respective vasopressin receptor. The bioluminescence of the cell lines is detected using a suitable luminometer [Milligan G, Marshall F, Rees S, Trends in Pharmacological Sciences 17, 235-237 (1996)].
Vasopressin V2 Receptor Cell Lines:
On the day before the assay, the cells are plated out in culture medium (DMEM/F12, 2% FCS, 2 mM glutamine, 10 mM HEPES) in 384-well microtiter plates and kept in a cell incubator (96% humidity, 5% v/v CO2, 37° C.). On the day of the assay, test compounds in various concentrations and the agonist [Arg^8]-vasopressin at EC50 concentration are added together to the wells, and plates are incubated for 3 hours in a cell incubator. Upon addition of the cell lysis reagent Triton™ and the substrate luciferin, luminescence of firefly luciferase is measured in a luminometer.
(§3) Table 1A below lists individual IC50 values for the compounds of the invention (including racemic mixtures as well as separated enantiomers) that were obtained from cell lines transfected with the human V1a or V2 receptor: […]

human V1a receptor = target: T2, human V1a receptor (Homo sapiens, UniProt P37288); test: Cellular in vitro assay for vasopressin receptor activity, V1a cell line (aequorin luminescence); assay type: cell-based; conditions: for pIC50: CHO cell line transfected with human V1a receptor, agonist [Arg8]-vasopressin at EC50 concentration, read-out: IC50hV1a; for ratio IC50 hV2/hV1a: ratio of the IC50 on human V2 to the IC50 on human V1a
T2 construct: expressed in transfected cells; host or cells: CHO K1 (ATCC), also stably transfected with a modified aequorin
T2 sequence (P37288 whole entry): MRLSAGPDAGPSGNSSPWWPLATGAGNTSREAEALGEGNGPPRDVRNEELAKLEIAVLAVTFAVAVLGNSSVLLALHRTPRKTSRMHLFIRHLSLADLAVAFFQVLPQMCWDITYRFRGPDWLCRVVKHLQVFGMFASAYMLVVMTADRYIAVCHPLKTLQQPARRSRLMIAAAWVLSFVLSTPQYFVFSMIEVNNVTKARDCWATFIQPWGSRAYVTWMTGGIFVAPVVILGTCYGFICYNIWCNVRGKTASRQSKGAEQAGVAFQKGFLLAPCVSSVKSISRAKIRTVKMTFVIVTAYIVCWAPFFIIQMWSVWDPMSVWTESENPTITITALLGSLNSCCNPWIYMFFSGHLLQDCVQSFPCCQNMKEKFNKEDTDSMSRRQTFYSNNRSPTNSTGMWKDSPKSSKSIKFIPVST
Protocol: as §1, §2
Vasopressin V1a Receptor Cell Lines:
On the day before the assay, the cells are plated out in culture medium (DMEM/F12, 2% FCS, 2 mM glutamine, 10 mM HEPES, 5 μg/ml coelenterazine) in 384-well microtiter plates and kept in a cell incubator (96% humidity, 5% v/v CO2, 37° C.). On the day of the assay, test compounds in various concentrations are placed for 10 minutes in the wells of the microtiter plate before the agonist [Arg^8]-vasopressin at EC50 concentration is added. The resulting light signal is measured immediately in a luminometer.
as §3

SMILES	pIC50 (human V2 receptor)	pIC50 (human V1a receptor)	ratio IC50 hV2/hV1a (human V1a receptor)
CC(F)(F)c1nc(Cn2nc(-c3ccc(Cl)cc3)n(C[C@H](O)C(F)(F)F)c2=O)nn1-c1ccccc1OC(F)F [Example 63, 5-(4-Chlorophenyl)-2-({5-(1,1-difluoroethyl)-1-[2-(difluoromethoxy)phenyl]-1H-1,2,4-triazol-3-yl}methyl)-4-[(2S)-3,3,3-trifluoro-2-hydroxypropyl]-2,4-dihydro-3H-1,2,4-triazol-3-one]	8.16	8.68	3.3
CC(F)(F)c1nc(Cn2nc(-c3ccc(Cl)cc3)n(C[C@H](O)C(F)(F)F)c2=O)nn1-c1cnccc1Cl [Example 54, 5-(4-Chlorophenyl)-2-{[1-(4-chloropyridin-3-yl)-5-(1,1-difluoroethyl)-1H-1,2,4-triazol-3-yl]methyl}-4-[(2S)-3,3,3-trifluoro-2-hydroxypropyl]-2,4-dihydro-3H-1,2,4-triazol-3-one]	7.95	9.03	12.2
CC(F)c1nc(Cn2nc(-c3ccc(Cl)cc3)n(C[C@H](O)C(F)(F)F)c2=O)nn1-c1ccccc1C(F)(F)F (single isomer, unassigned) [Example 24]	8.33	8.96	4.2
CC(F)(F)c1nc(Cn2nc(-c3ccc(Cl)cc3)n(C[C@H](O)C(F)(F)F)c2=O)nn1-c1cccc(Cl)c1 [Example 55, 5-(4-Chlorophenyl)-2-{[1-(3-chlorophenyl)-5-(1,1-difluoroethyl)-1H-1,2,4-triazol-3-yl]methyl}-4-[(2S)-3,3,3-trifluoro-2-hydroxypropyl]-2,4-dihydro-3H-1,2,4-triazol-3-one]	8.28	7.22	0.1
CC(F)c1nc(Cn2nc(-c3ccc(Cl)cc3)n(C[C@H](O)C(F)(F)F)c2=O)nn1-c1ccccc1C#N (single isomer, unassigned) [Example 40]	6.38	7.55	14.7
CC(F)c1nc(Cn2nc(-c3ccc(Cl)cc3)n(C[C@H](O)C(F)(F)F)c2=O)nn1-c1ccccc1OC(F)F (mixture of isomers) [Example 31, 5-(4-Chlorophenyl)-2-({1-[2-(difluoromethoxy)phenyl]-5-[1-fluoroethyl]-1H-1,2,4-triazol-3-yl}methyl)-4-[(2S)-3,3,3-trifluoro-2-hydroxypropyl]-2,4-dihydro-3H-1,2,4-triazol-3-one]	8.34	8.76	2.6
CC(F)c1nc(Cn2nc(-c3ccc(Cl)cc3)n(C[C@H](O)C(F)(F)F)c2=O)nn1-c1cnccc1C(F)(F)F (single isomer, unassigned) [Example 9]	8.15	9.00	7.1
CC(F)(F)c1nc(Cn2nc(-c3ccc(Cl)cc3)n(C[C@H](O)C(F)(F)F)c2=O)nn1-c1c(F)cccc1F [Example 70, 5-(4-Chlorophenyl)-2-{[5-(1,1-difluoroethyl)-1-(2,6-difluorophenyl)-1H-1,2,4-triazol-3-yl]methyl}-4-[(2S)-3,3,3-trifluoro-2-hydroxypropyl]-2,4-dihydro-3H-1,2,4-triazol-3-one]	8.64	8.76	1.3
CC(F)c1nc(Cn2nc(-c3ccc(Cl)cc3)n(C[C@H](O)C(F)(F)F)c2=O)nn1-c1cnccc1C(F)(F)F (stereo partly drawn) [Example 7, 5-(4-Chlorophenyl)-2-({5-[1-fluoroethyl]-1-[4-(trifluoromethyl)pyridin-3-yl]-1H-1,2,4-triazol-3-yl}methyl)-4-[(2S)-3,3,3-trifluoro-2-hydroxypropyl]-2,4-dihydro-3H-1,2,4-triazol-3-one]	7.90	8.95	11.1
CC(F)(F)c1nc(Cn2nc(-c3ccc(Cl)cc3)n(C[C@H](O)C(F)(F)F)c2=O)nn1-c1ccccc1S(N)(=O)=O [Example 66, 2-[3-({3-(4-Chlorophenyl)-5-oxo-4-[(2S)-3,3,3-trifluoro-2-hydroxypropyl]-4,5-dihydro-1H-1,2,4-triazol-1-yl}methyl)-5-(1,1-difluoroethyl)-1H-1,2,4-triazol-1-yl]benzenesulfonamide]	6.47	7.24	5.9
CC(F)c1nc(Cn2nc(-c3ccc(Cl)cc3)n(C[C@H](O)C(F)(F)F)c2=O)nn1-c1ccccc1Cl (single isomer, unassigned) [Example 2]	8.87	9.44	3.8

These reach a higher pIC50 (human V2 receptor). Values come first.

pIC50 (human V2 receptor)	pIC50 (human V1a receptor)	ratio IC50 hV2/hV1a (human V1a receptor)	SMILES
9.24	7.80	0.0	CC(F)c1nc(Cn2nc(-c3ccc(Cl)cc3)n(C[C@H](O)C(F)(F)F)c2=O)nn1-c1cccc(Cl)c1 (mixture of isomers) [Example 16, 5-(4-Chlorophenyl)-2-({1-(3-chlorophenyl)-5-[1-fluoroethyl]-1H-1,2,4-triazol-3-yl}methyl)-4-[(2S)-3,3,3-trifluoro-2-hydroxypropyl]-2,4-dihydro-3H-1,2,4-triazol-3-one]
8.94	9.40	2.9	CC(F)(F)c1nc(Cn2nc(-c3ccc(Cl)cc3)n(C[C@H](O)C(F)(F)F)c2=O)nn1-c1ccccc1Cl [Example 53, 5-(4-Chlorophenyl)-2-{[1-(2-chlorophenyl)-5-(1,1-difluoroethyl)-1H-1,2,4-triazol-3-yl]methyl}-4-[(2S)-3,3,3-trifluoro-2-hydroxypropyl]-2,4-dihydro-3H-1,2,4-triazol-3-one]
9.12	8.73	0.4	CCc1ccccc1-n1nc(Cn2nc(-c3ccc(Cl)cc3)n(C[C@H](O)C(F)(F)F)c2=O)nc1C(C)F (mixture of isomers) [Example 28, 5-(4-Chlorophenyl)-2-({1-(2-ethylphenyl)-5-[1-fluoroethyl]-1H-1,2,4-triazol-3-yl}methyl)-4-[(2S)-3,3,3-trifluoro-2-hydroxypropyl]-2,4-dihydro-3H-1,2,4-triazol-3-one]
9.01	8.85	0.7	CSc1ccccc1-n1nc(Cn2nc(-c3ccc(Cl)cc3)n(C[C@H](O)C(F)(F)F)c2=O)nc1C(C)(F)F [Example 74, 5-(4-Chlorophenyl)-2-({5-(1,1-difluoroethyl)-1-[2-(methylsulfanyl)phenyl]-1H-1,2,4-triazol-3-yl}methyl)-4-[(2S)-3,3,3-trifluoro-2-hydroxypropyl]-2,4-dihydro-3H-1,2,4-triazol-3-one]
9.77	9.44	0.5	Cc1ccccc1-n1nc(Cn2nc(-c3ccc(Cl)cc3)n(C[C@H](O)C(F)(F)F)c2=O)nc1C(C)F (single isomer, unassigned) [Example 35]
9.15	9.46	2.0	CC(F)c1nc(Cn2nc(-c3ccc(Cl)cc3)n(C[C@H](O)C(F)(F)F)c2=O)nn1-c1ccccc1Cl (mixture of isomers) [Example 1, 5-(4-Chlorophenyl)-2-({1-(2-chlorophenyl)-5-[1-fluoroethyl]-1H-1,2,4-triazol-3-yl}methyl)-4-[(2S)-3,3,3-trifluoro-2-hydroxypropyl]-2,4-dihydro-3H-1,2,4-triazol-3-one]
